Laboratory results as given in US20260083865A1, “PROSTATE SPECIFIC MEMBRANE ANTIGEN (PSMA) LIGANDS AND USE THEREOF” (priority 2022, published 2026).
Like-named read-outs stand apart in the source and are kept apart here. Numbered stars: 1 amine (or outer) side, 2 acyl side, 3 side chain; on linkers, the order of the positions; unused ones are H or OH. Bridge positions count the residues as written; N and C are the ends. Square brackets hold non-standard residues; d marks the D form. Peptide text beside a SMILES is read from it. * marks the point of attachment. TtdsdLys(DOTA)NH2 = NC(=O)[C@@H](CCCCNC(=O)CN1CCN(CC(=O)O)CCN(CC(=O)O)CCN(CC(=O)O)CC1)NC(=O)CCC(=O)NCCCOCCOCCOCCCN*; NH(CH2)5NHDOTA = O=C(O)CN1CCN(CC(=O)O)CCN(CC(=O)NCCCCCN*)CCN(CC(=O)O)CC1; DOTA = O=C(O)CN1CCN(CC(=O)O)CCN(CC(=O)*)CCN(CC(=O)O)CC1; Phe(4-Cl) = N[C@@H](Cc1ccc(Cl)cc1)C(=O)O; X4 = O=C(CN1CCC(N[*:1])CC1)[*:2]; Tle = CC(C)(C)[C@H](N)C(=O)O; Nle = CCCC[C@H](N)C(=O)O; Aib = CC(C)(N)C(=O)O; Bn = c1ccc(C*)cc1; GABA = NCCCC(=O)O

Tests used:
[1] = target: T1, PSMA-expressing C4-2 cells (Homo sapiens, UniProt Q04609); experiment: FACS binding assay (competition with 50 nM PSM-0183); details: read-out: pIC50 [C4-2] CAT (converted)
T1 construct: PSMA-expressing C4-2 cells (ATCC, Cat. No. CRL-3314) were cultured in RPMI-1640; host or cells: C4-2 cells
Procedure, shortened: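 C4-2 cells were incubated 1 h at 4 °C with 50 nM AF488-labelled peptide PSM-0183 plus increasing test compound concentrations, then washed twice in ice-cold buffer. Median fluorescence in the AF488 channel was read by flow cytometry. IC50/pIC50 was derived by 4PL fitting of MFI versus concentration.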

[2] = target: T2, Fc-fusion protein of human PSMA (hPSMA-Fc) (Homo sapiens, UniProt Q04609); experiment: Surface plasmon resonance assay (Biacore T200, single cycle kinetic); format: binding; details: hPSMA-Fc, 25° C., read-out: pKD CAT (converted)
T2 construct: purchased Acro Biosystems PSA-H5264
Procedure, shortened: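 hPSMA-Fc was captured (~1000 RU) on an Fc-binding-peptide CM5 chip, and compounds were run in single cycle kinetic mode at 25° C in HBST with 0.1% DMSO. Double-blank-corrected sensorgrams were fitted to a 1:1 Langmuir model to give KD, reported as pKD.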

[3] = FACS binding, C4-2 cells, competition with 50 nM PSM-0183, category
[4] = SPR, single cycle kinetic, category
[5] = pIC50 category of FACS binding, C4-2 cells
[6] = pKD category for PSMA SPR activity assay

T2 sequence (Q04609 44-750 limits assumed): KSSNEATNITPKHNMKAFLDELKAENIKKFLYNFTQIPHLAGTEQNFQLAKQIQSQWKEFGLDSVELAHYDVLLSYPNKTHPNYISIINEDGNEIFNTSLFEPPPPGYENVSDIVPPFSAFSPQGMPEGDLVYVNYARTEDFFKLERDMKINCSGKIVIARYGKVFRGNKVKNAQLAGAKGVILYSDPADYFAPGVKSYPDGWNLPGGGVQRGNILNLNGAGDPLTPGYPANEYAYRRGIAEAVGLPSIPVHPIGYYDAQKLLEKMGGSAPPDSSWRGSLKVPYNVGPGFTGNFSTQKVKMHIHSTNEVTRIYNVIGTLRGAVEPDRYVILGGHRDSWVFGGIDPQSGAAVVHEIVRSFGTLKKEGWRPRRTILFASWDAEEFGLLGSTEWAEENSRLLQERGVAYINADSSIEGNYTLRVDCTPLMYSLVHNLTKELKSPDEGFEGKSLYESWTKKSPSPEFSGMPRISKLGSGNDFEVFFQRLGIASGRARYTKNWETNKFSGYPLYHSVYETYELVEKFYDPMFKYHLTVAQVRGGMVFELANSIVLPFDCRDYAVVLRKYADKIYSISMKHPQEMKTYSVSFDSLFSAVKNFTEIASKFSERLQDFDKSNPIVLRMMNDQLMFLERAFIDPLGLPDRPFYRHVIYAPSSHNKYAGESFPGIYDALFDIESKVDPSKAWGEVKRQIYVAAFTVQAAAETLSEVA
T1 sequence (Q04609 whole entry): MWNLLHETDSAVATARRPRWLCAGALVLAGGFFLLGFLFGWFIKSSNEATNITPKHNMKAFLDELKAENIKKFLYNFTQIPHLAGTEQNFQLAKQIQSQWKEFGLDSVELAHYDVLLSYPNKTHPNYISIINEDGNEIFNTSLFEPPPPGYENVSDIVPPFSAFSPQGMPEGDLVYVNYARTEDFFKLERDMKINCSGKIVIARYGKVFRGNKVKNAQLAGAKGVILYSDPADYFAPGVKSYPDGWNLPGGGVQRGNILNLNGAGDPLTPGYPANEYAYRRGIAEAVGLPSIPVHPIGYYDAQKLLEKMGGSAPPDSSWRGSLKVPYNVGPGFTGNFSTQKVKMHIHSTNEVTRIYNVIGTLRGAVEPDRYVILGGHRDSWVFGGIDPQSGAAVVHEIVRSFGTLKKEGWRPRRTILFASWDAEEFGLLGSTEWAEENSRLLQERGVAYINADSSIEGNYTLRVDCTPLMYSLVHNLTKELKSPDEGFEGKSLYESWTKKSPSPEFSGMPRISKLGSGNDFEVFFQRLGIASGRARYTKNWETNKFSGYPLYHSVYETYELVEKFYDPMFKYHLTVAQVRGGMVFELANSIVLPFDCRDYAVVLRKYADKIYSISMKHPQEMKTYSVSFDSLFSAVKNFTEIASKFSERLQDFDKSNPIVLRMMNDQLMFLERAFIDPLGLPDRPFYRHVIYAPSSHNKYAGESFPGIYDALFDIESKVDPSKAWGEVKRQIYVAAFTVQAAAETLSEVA

SMILES	IC50 [1, 5]	Kd [2, 6]	other results
C[C@@H](O)[C@H](NC(=O)[C@@H](NC(=O)[C@@H]1CSSC[C@H](NC(=O)[C@H](Cc2ccc(Cl)cc2)NC(=O)C(C)(C)NC(=O)CN2CCC(NC(=O)CN3CCN(CC(=O)O)CCN(CC(=O)O)CCN(CC(=O)O)CC3)CC2)C(=O)N[C@@H](CCCCN)C(=O)N[C@@H](CCCNC(=N)N)C(=O)NC(C)(C)C(=O)N[C@@H](CC(N)=O)C(=O)N1)C(C)(C)C)C(N)=O [PSM-0263] ({DOTA}-[X4][Aib][Phe(4-Cl)]CKR[Aib]NC[Tle]T-NH2; disulfide 4-9)			IC50 [1, 3]: < 200 nM; Kd [2, 4]: < 12.6 nM
CCCC[C@H](NC(=O)[C@@H]1CSSC[C@H](NC(=O)[C@H](Cc2ccccc2)NC(=O)[C@H](C)NC(=O)[C@@H](NC(C)=O)[C@@H](C)O)C(=O)N[C@@H](CCCCN)C(=O)N[C@@H](CCCNC(=N)N)C(=O)N2CCC[C@H]2C(=O)N[C@@H](CC(N)=O)C(=O)N1)C(=O)N[C@H](C(=O)N[C@@H](CC(=O)O)C(N)=O)[C@@H](C)O [PSM-0460, Ac-Thr-Ala-Phe-[Cys-Lys-Arg-Pro-Asn-Cys]-Nle-Thr-Asp-NH2] (Ac-TAFCKRPNC[Nle]TD-NH2; disulfide 4-9)	< 200 nM	12.6 to 126 nM	
CC(=O)N[C@H](C(=O)NC(C)(C)C(=O)N[C@@H](Cc1ccccc1)C(=O)N[C@H]1CSSC[C@@H](C(=O)N[C@H](C(=O)N[C@H](C(N)=O)[C@@H](C)O)C(C)(C)C)NC(=O)[C@H](CC(C)C)NC(=O)C(C)(C)NC(=O)[C@H](CCCNC(=N)N)NC(=O)[C@H](CCCCN)NC1=O)[C@@H](C)O [PSM-0545, Ac-Thr-Aib-Phe-[Cys-Lys-Arg-Aib-Leu-Cys]-Tle-Thr-NH2] (Ac-T[Aib]FCKR[Aib]LC[Tle]T-NH2; disulfide 4-9)	< 200 nM	< 12.6 nM	
CC(=O)N[C@H](C(=O)NC(C)(C)C(=O)N[C@@H](Cc1ccccc1)C(=O)N[C@H]1CSSC[C@@H](C(=O)N[C@H](C(=O)N[C@H](C(=O)NCCCCCNC(=O)CN2CCN(CC(=O)O)CCN(CC(=O)O)CCN(CC(=O)O)CC2)[C@@H](C)O)C(C)(C)C)NC(=O)[C@H](CC(N)=O)NC(=O)C(C)(C)NC(=O)[C@H](CCCNC(=N)N)NC(=O)[C@H](CCCCN)NC1=O)[C@@H](C)O [PSM-0391, Ac-Thr-Aib-Phe-[Cys-Lys-Arg-Aib-Asn-Cys]-Tle-Thr-Ape-DOTA] (Ac-T[Aib]FCKR[Aib]NC[Tle]T-{NH(CH2)5NHDOTA}; disulfide 4-9)	< 200 nM	< 12.6 nM	
CCCC[C@H](NC(=O)[C@@H]1CSSC[C@H](NC(=O)[C@H](Cc2ccccc2)NC(=O)[C@H](C)NC(=O)[C@@H](NC(C)=O)[C@@H](C)O)C(=O)N[C@@H](CCCCN)C(=O)N[C@@H](CCCNC(=N)N)C(=O)N[C@@H](C)C(=O)N[C@@H](CC(N)=O)C(=O)N1)C(=O)N[C@H](C(=O)NCCCC(=O)O)[C@@H](C)O [PSM-0313, Ac-Thr-Ala-Phe-[Cys-Lys-Arg-Ala-Asn-Cys]-Nle-Thr-Gab-OH] (Ac-TAFCKRANC[Nle]T[GABA]-OH; disulfide 4-9)			IC50 ([1]; FACS binding, PSMA-expressing C4-2 cells, pIC50 category): 200 to 1260 nM; Kd ([2]; PSMA SPR assay, pKD category): 126 to 501 nM
CC(=O)N[C@H](C(=O)NC(C)(C)C(=O)N[C@@H](Cc1ccccc1)C(=O)N[C@H]1CSSC[C@@H](C(=O)N[C@H](C(=O)N[C@H](C(=O)NCCCOCCOCCOCCCNC(=O)CCC(=O)N[C@H](CCCCNC(=O)CN2CCN(CC(=O)O)CCN(CC(=O)O)CCN(CC(=O)O)CC2)C(N)=O)[C@@H](C)O)C(C)(C)C)NC(=O)[C@H](CC(N)=O)NC(=O)[C@H](C)NC(=O)[C@H](CCCNC(=N)N)NC(=O)[C@H](CCCCN)NC1=O)[C@@H](C)O [PSM-0231, Ac-Thr-Aib-Phe-[Cys-Lys-Arg-Ala-Asn-Cys]-Tle-Thr-Ttds-lys(DOTA)-NH2] (Ac-T[Aib]FCKRANC[Tle]T-{TtdsdLys(DOTA)NH2}; disulfide 4-9)			IC50 [1, 3]: < 200 nM; Kd [2, 4]: < 12.6 nM
CC(=O)N[C@H](C(=O)NC(C)(C)C(=O)N[C@@H](CSCc1ccccc1)C(=O)N[C@H]1CSSC[C@@H](C(=O)N[C@H](C(=O)N[C@H](C(N)=O)[C@@H](C)O)C(C)(C)C)NC(=O)[C@H](CC(N)=O)NC(=O)C(C)(C)NC(=O)[C@H](CCCNC(=N)N)NC(=O)[C@H](CCCCN)NC1=O)[C@@H](C)O [PSM-0441, Ac-Thr-Aib-Cys(Bzl)-[Cys-Lys-Arg-Aib-Asn-Cys]-Tle-Thr-NH2] (Ac-T[Aib]C(Bn)CKR[Aib]NC[Tle]T-NH2; disulfide 4-9)	< 200 nM	12.6 to 126 nM	
